# What was measured:
# [1] = system: lysosome; test: Lysosome imaging in HeLa cells, co-staining with LTR; format: cell-based, human; conditions: HeLa cells
# Description: Then, AIE-LysoY was applied to lysosome imaging and its lysosome-targeting performance was assessed by fluorescence microscope. HeLa cells were stained with 10 μM of AIE-LysoY for 10 min, followed by washing away the abundant molecules of AIE-LysoY and incubation with 50 nM of LTR for 30 min. […] The fluorescence of AIE-LysoY overlaps perfectly with that of LTR, indicating the lysosome-targeting of AIE-LysoY.
# Quantitative analysis of the degree of overlapping of these two fluorescence signals by Pearson's coefficient (Rr), which depicts the degree of linear dependence between two variables, gives an overlapping coefficient of 0.90. The high Rr value proves that AIE-LysoY is a lysosome-selective probe. […] Changing the staining time from 10 min to 60 min, the specificity to lysosome is retained, as well as the emission contrast.
# To design the lysosome-specific bioprobe, a molecular engineering approach was employed. The precursor of AIE-LysoY, FAS-Br, and two morpholine-functionalized AIEgens, TPE-2Mor and Nred-mor were prepared and applied to cell imaging. The molecular structures of TPE-2mor and Nred-mor are shown below: […]
# [2] = system: HeLa cells; test: Cancer cell imaging for HeLa cells (TTE, TFE, fl-TFE); format: cell-based, human; conditions: 10 μM; TTE in HeLa and A549, TFE and fl-TFE only in HeLa
# Description: Cell Culture. HeLa cells were cultured in MEM containing 10% FBS and 1% antibiotics (100 units/mL penicillin and 100 µg/mL streptomycin) in a 5% CO2 humidity incubator at 37° C. Cell Imaging. Lung cancer cell A549 were cultured in DMEM containing 10% FBS and antibiotics (100 units/mL penicillin and 100 µg/mL streptomycin) in a 5% CO2 humidity incubator at 37° C. Two different kind of cells were grown overnight on a 35 mm petri dish with a cover slip. The live cells were incubated with 10 μM of TTE for 15/30 mins, TFE for 30′ and fl-TFE for 30′ and 5 h (the last two have been tested only in HeLa cells). In a typical experiment, 2 μL of a 10 mM stock solution of TTE in DMSO were diluted to 1 mL with cell culture medium, followed by further dilution to desired concentration. The cells were imaged under a fluorescent microscope (BX41 Microscope) using same excitation and emission filters: excitation filter=330-385 nm, dichroic mirror=420 nm, and emission filter=400 nm long pass.
# The HeLa cells were grown overnight on a 35 mm petri dish with a cover slip. The live cells were incubated with 10 μM of TTE for 30 mins, which are shown in FIG. 17A-B. The HeLa cells were incubated with 50 μM oleic acid for 6 hrs and then were co-stained by 10 μM TTE and 1 μg/mL for 15 mins.
# [3] = system: HeLa cells; test: MTT cell viability assay, HeLa cells; format: cell-based, human; conditions: HeLa, different concentrations, 24 hrs
# Description: Hela cells were incubated with different concentrations of Naph-IQ in culture medium for 24 hours.
# Before employing AIE-LysoY as a fluorescent visualizer of lysosome, a 3-(4,5-dimethyl-2-thiazolyl)-2,5-diphenyltetrazolium bromide (MTT) cell proliferation assay was first conducted to evaluate its cytotoxicity. […] The good biocompatibility of AIE-LysoY enables its application as a fluorescent tracer to follow the autophagic process of lysosome.
# [4] = system: mitochondria; test: Co-staining with commercial organelle trackers in HeLa cells (mitochondria staining); format: cell-based, human
# Description: The HeLa cells were grown overnight on a 35 mm petri dish with a cover slip. Then the HeLa cells were stained with 200 nM TPE-IQ-2O and Mito-tracker red (50 nM)/Lyso-tracker red (50 nM)/DAPI (500 nM) for 20 mins.
# The DMSO solution of DPA-IQ was almost non-emissive while the aggregation state powder of this material emits strong green luminescence upon the UV excitation.
# The commercially available MitoTracker Red FM is co-stained as a control together with Naph-IQ.
# [5] = system: MCF-7 cells; test: Lysosomal imaging in MCF-7 cells, co-staining with LTR; format: cell-based; conditions: MCF-7, 50 nm TMX 24 hrs, matched with LTR
# Description: The behavior of TPE-TMX in cellular settings was studied as compared to TMX. MCF-7 cells were incubated with 2 μM TPE-TMX and […] TMX for 24 hrs, respectively. The cells were then washed and directly observed under the microscope without fixation. […] However, the exact intracellular location of TMX cannot be confirmed by fluorescent microscopy because its emission wavelength is not in the range of the visible spectrum. Therefore, a series of commercial fluorescent markers were used to image drug delivery of TMX. […] On the other hand, TPE-TMX, without any aid of fluorescent dye, can be successfully monitored in the cells thanks to its intense blue emission. The controls display no emission under UV irradiation.
# To further confirm the subcellular distribution of TPE-TMX, LTR was also used to co-stain MCF-7 cells with TPE-TMX. […] As expected, TPE-TMX is a specific fluorescent dye to visualize lysosomal organelle structures as well as monitor the drug release.
# [6] = system: HepG2 cells; test: Cell imaging, HepG2 cells; format: cell-based, human; conditions: HepG2, 200 nM DPA-IQ, 10 min
# Description: (§1) The PC-9, HepG2, and HCC827 cells were grown overnight on a 35 mm petri dish with a cover slip. The live cells were incubated with 200 nM of TPE-IQ-2O for 20 and 10 mins. In all the experiments, the cancer cells are fluorescent in solely staining.
# (§2) HepG2 cells (human hepatocarcinoma cell line), PC-9 cells (human lung adenocarcinoma cell line), Hela cells (human cervical carcinoma cell line), and LX2 cells (normal cell, human hepatic stellate cell line) were stained with 200 nM DPA-IQ for 10 min. Images were taken under the same equipment settings. Scale bar: 30 μm. Excitation wavelength: 400-440 nm.
# [7] = system: HeLa cells; test: Cell imaging under fluorescent microscope, HeLa cells; format: cell-based, human; conditions: Hela, 200 nM DPA-IQ, 10 min
# Description: Cell culture: HeLa cells were cultured in the MEM containing 10% FBS and 1% antibiotics (100 units/mL penicillin and 100 µg/mL streptomycin) in a 5% CO2 humidity incubator at 37° C. COS-7, MDA-MB-231, MCF-7, and MDCK-II cells were culture in the DMEM containing 10% FBS and antibiotics (100 units/mL penicillin and 100 µg/mL streptomycin) in a 5% CO2 humidity incubator at 37° C.
# Cell imaging: two different kind of cells were grown overnight on a 35 mm petri dish with a cover slip. The live cells were incubated with 200 nM of TPE-IQ-2O for 1, 5, 10, and 20 mins. In a typical experiment, 2 μL of a 10 mM stock solution of TPE-IQ-2O in DMSO was diluted to 2 mL with cell culture medium, followed by further dilution to desired concentration. The cells were imaged under a fluorescent microscope (BX41 Microscope) using the same excitation and emission filters: excitation filter=400-440 nm, dichroic mirror=455 nm, and emission filter=465 nm long pass.
# Two different kinds of cells were grown overnight on a 35 mm petri dish with a cover slip. The live cells were incubated with 200 nM of TPE-IQ-20 for 20, 10, 5, and 1 mins. The Hela cells were stained by TPE-IQ-2O; the COS-7 cells were stained by TPE-IQ-2O; the Hela cells and COS-7 cells were co-cultured and stained together by TPE-IQ-2O. Condition: 200 nM (Filter: both close; Channel 5; EX: 400-440 nm; Exposure time: bright field: 1000 ms Fluorescence: 1000 ms.
# Two different kinds of cells were grown overnight on a 35 mm petri dish with a cover slip. The live cells were incubated with 200 nM of TPE-IQ-2O for 10 mins. The Hela cells were stained by TPE-IQ-2O; the MDCKII cells were stained by TPE-IQ-2O; the MDA-MB-231 cells and COS-7 cells were co-cultured and stained together by TPE-IQ-2O. Condition: 200 nM 10 mins (Filter: both close; Channel 5; EX: 400-440 nm; Exposure time: bright field: 1000 ms Fluorescence: 1000 ms.
# as §2
# [8] = system: PC-9 cells; test: Cell imaging, PC-9 cells; format: cell-based, human; conditions: PC-9, 200 nM DPA-IQ, 10 min
# Description: as §1, §2
# [9] = system: LX2 cells; test: Cell imaging, LX2 normal cells; format: cell-based, human; conditions: LX2, 200 nM DPA-IQ, 10 min
# Description: The LX2 cells were grown overnight on a 35 mm petri dish with a cover slip. The live cells were incubated with 200 nM of TPE-IQ-2O for 20 and 10 mins.
# as §2
SMILES,Intracellular localisation of control probes [1],Cytotoxicity by MTT assay [3],Mitochondrial staining compared with MitoTracker Red FM [4],also measured
"Oc1cc(OCCCCCCBr)ccc1/C=N/N=C1c2ccccc2-c2ccccc21 [FAS-Br, (E)-2-(((9H-fluoren-9-ylidene)hydrazono)methyl)-5-((6-bromohexyl)oxy)phenol]",lights up intracellular lipid droplets and the recticulum structures of mitochondria in HeLa cells rather than lysosomes,–,–,–
"c1coc(C(=C(c2ccco2)c2ccco2)c2ccco2)c1 [TFE, Tetrakis(2-furyl)ethene]",–,–,–,Ability to enter cells as bioprobe [2]: Only TTE has revealed to be useful for this purpose
"c1cc2c3ccoc3c3c4occc4c4ccoc4c3c2o1 [fl-TFE, Tetrafuro[2,3-a:3′,2′-c:2″,3″-f:3″′,2″′-h]-naphthalene]",–,–,–,Ability to enter cells as bioprobe [2]: Only TTE has revealed to be useful for this purpose
c1ccc(C(=C(c2ccccc2)c2ccc(CN3CCOCC3)cc2)c2ccc(CN3CCOCC3)cc2)cc1 [TPE-2Mor],stains all the hydrophobic regions,–,–,–
CCC[n+]1cc2ccc(-c3cccc4c(OC)cccc34)cc2c(-c2ccccc2)c1-c1ccccc1 [Naph-IQ],–,low cytotoxicity,can stain the mitochondrial organelle as good as MitoTracker Red FM with higher resolution,–
"CC/C(=C(\c1ccccc1)c1ccc(OCCN(C)C)cc1)c1ccccc1 [TMX, Tamoxifen, reference compound]",–,–,–,Subcellular distribution [5]: possible to be localized on the lysosomes
CN(C)c1ccc(/C=C(\C#N)c2ccc(-c3cc[n+](CCCCCCN4CCOCC4)cc3)cc2)cc1 [Nred-mor],selectively accumulates in the mitochondria,–,–,–
CCC[n+]1cc2ccc(-c3ccc(N(c4ccccc4)c4ccccc4)cc3)cc2c(-c2ccccc2)c1-c1ccccc1 [TPA-IQ],–,low cytotoxicity,can stain the mitochondrial organelle as well as the commercially available MitoTracker Red FM with higher resolution,–
CCC[n+]1cc2ccc(N(c3ccccc3)c3ccccc3)cc2c(-c2ccccc2)c1-c1ccccc1 [DPA-IQ],–,low cytotoxicity,can stain the mitochondrial organelle as good as the commercially available MitoTracker Red FM,Emission of stained cells [6]: strong emission; Emission of stained cells [7]: strong emission; Emission of stained cells [8]: strong emission; Emission of stained cells [9]: faint emission

# Reference: US10935552B2, “Aie luminogens for visualization and treatment of cancer” (THE HONG KONG UNIVERSITY OF SCIENCE AND TECHNOLOGY, priority 2015, dated 2021)
